Data on seven compounds can be found in patent EP0835871B1, “Benzo [b] thiophene compounds, intermediates, formulations, and methods” (ELI LILLY AND COMPANY, priority 1996, dated 1998).

Data set [1] relates to female Sprague Dawley rats. The data set is described as follows: Uterine wet weight in the post-menopausal (ovariectomized rat) model, 4 days of oral dosing. In kind it is in vivo. The settings on record: % increase versus the ovariectomized controls, * p<0.05. The method, then: (§1) In the examples illustrating the methods, a post-menopausal model was used in which effects of different treatments upon circulating lipids were determined.
(§2) Seventy-five day old female Sprague Dawley rats (weight range of 200 to 225g) are obtained from Charles River Laboratories (Portage, MI). The animals are either bilaterally ovariectomized (OVX) or exposed to a Sham surgical procedure at Charles River Laboratories, and then shipped after one week. Upon arrival, they are housed in metal hanging cages in groups of 3 or 4 per cage and have ad libitum access to food (calcium content approximately 0.5%) and water for one week. Room temperature is maintained at 22.2° ± 1.7° C with a minimum relative humidity of 40%. The photoperiod in the room is 12 hours light and 12 hours dark.
(§3) Dosing Regimen Tissue Collection. After a one week acclimation period (therefore, two weeks post-OVX) daily dosing with test compound is initiated. 17α-ethynyl estradiol or the test compound are given orally, unless otherwise stated, as a suspension in 1% carboxymethylcellulose or dissolved in 20% cyclodextrin. Animals are dosed daily for 4 days. Following the dosing regimen, animals are weighed and anesthetized with a ketamine: Xylazine (2:1, V:V) mixture and a blood sample is collected by cardiac puncture. The animals are then sacrificed by asphyxiation with CO2, the uterus is removed through a midline incision, and a wet uterine weight is determined.

For the next data set, the system named is Serum cholesterol. The data set is described as follows: Serum cholesterol analysis in ovariectomized rats. The settings on record: decrease versus ovariectomized controls, * p<0.05. In kind it is in vivo. The method, then: as §1, §2, §3
Cholesterol Analysis. Blood samples are allowed to clot at ambient temperature for 2 hours, and serum is obtained following centrifugation for 10 minutes at 3000 rpm. Serum cholesterol is determined using a Boehringer Mannheim Diagnostics high performance cholesterol assay. Briefly, the cholesterol is oxidized to cholest-4-en-3-one and hydrogen peroxide. The hydrogen peroxide is then reacted with phenol and 4-aminophenazone in the presence of peroxidase to produce a p-quinone imine dye, which is read spectrophotemetrically at 500 nm. Cholesterol concentration is then calculated against a standard curve.

The subject of data set [2] is Uterine Eosinophil Peroxidase (EPO). The data set is described as follows: Uterine Eosinophil Peroxidase (EPO) Assay in ovariectomized rats. In kind it is in vivo. Details: unit not given here. The settings on record: Vmaximum, * p<0.05.
Text: as §2, §3
Uterine Eosinophil Peroxidase (EPO) Assay. Uteri are kept at 4° C until time of enzymatic analysis. The uteri are then homogenized in 50 volumes of 50 mM Tris buffer (pH - 8.0) containing 0.005% Triton X-100. Upon addition of 0.01% hydrogen peroxide and 10 mM o-phenylenediamine (final concentrations) in Tris buffer, increase in absorbance is monitored for one minute at 450 nm. The presence of eosonophils in the uterus is an indication of estrogenic activity of a compound. The maximal velocity of a 15 second interval is determined over the initial, linear portion of the reaction curve.

The test system of data set [3] is MCF-7 breast adenocarcinoma cells (ATCC HTB 22). The data set is described as follows: MCF-7 Proliferation Assay (tritiated thymidine uptake). In kind it is cell-based. The note with it: MCF-7 cells, 48 hours with drug, tritiated thymidine pulse 4 hours. The method, then: MCF-7 Proliferation Assay
MCF-7 breast adenocarcinoma cells (ATCC HTB 22) were maintained in MEM (minimal essential medium, phenol red-free, Sigma, St. Louis, MO) supplemented with 10% fetal bovine serum (FBS) (V/V), L-glutamine (2 mM), sodium pyruvate (1 mM), HEPES {(N-[2-hydroxyethyl]piperazine-N'-[2-ethanesulfonic acid] 10 mM}, non-essential amino acids and bovine insulin (1 ug/mL) (maintenance medium). Ten days prior to assay, MCF-7 cells were switched to maintenance medium supplemented with 10% dextran coated charcoal stripped fetal bovine serum (DCC-FBS) assay medium) in place of 10% FBS to deplete internal stores of steroids. MCF-7 cells were removed from maintenance flasks using cell dissociation medium [Ca++/Mg++ free HBSS (phenol red-free) supplemented with 10 mM HEPES and 2 mM EDTA]. Cells were washed twice with assay medium and adjusted to 80,000 cells/mL. Approximately […] (8,000 cells) were added to flat-bottom microculture wells (Costar 3596) and incubated at 37° C in a 5% CO2 humidified incubator for 48 hours to allow for cell adherence and equilibration after transfer. Serial dilutions of drugs or DMSO as a diluent control were prepared in assay medium and […] to triplicate microcultures followed by […] assay medium for a final volume of […]. After an additional 48 hours at 37° C in a 5% CO2 humidified incubator, microcultures were pulsed with tritiated thymidine (1 µCi/well) for 4 hours. Cultures were terminated by freezing at -70° C for 24 hours followed by thawing and harvesting of microcultures using a Skatron Semiautomatic Cell Harvester. Samples were counted by liquid scintillation using a Wallac BetaPlace β counter. The compounds of formula I are active and potent in inhibiting the tumor cell growth, see: Table 2.

With `C#C[C@]1(O)CC[C@H]2[C@@H]3CCc4cc(O)ccc4[C@H]3CC[C@@]21C` [EE2, 17-α-Ethynyl-estradiol, reference compound], the “Uterine Wt. (% Inc.)” value in data set [1] (dose printed as 0. mg/kg PO) is 171.2* %. Also, the “Serum Cholesterol (% Dec.)” value in the data set on Serum cholesterol (dose printed as 0. mg/kg PO) was 85.1* %. The “Uterine EPO (Vmax)” value in data set [2] (dose printed as 0. mg/kg PO) is 142.4*.
Broadly, the IC50 is the concentration needed to halve the response being measured. As to `COC(=O)c1ccc2c(C(=O)c3ccc(OCCN4CCCCC4)cc3)c(-c3ccc(O)cc3)sc2c1.Cl` [Example 1, [2-(4-Hydroxyphenyl)-6-methoxycarbonylbenzo[b]thien-3-yl][4-[2-(1-piperidinyl)ethoxy]phenyl]methanone Hydrochloride], the “Uterine Wt. (% Inc.)” value is 46.9* % in data set [1] (0.1 mg/kg PO), 19.1% in data set [1] (1 mg/kg PO) and 45.2* % in data set [1] (10 mg/kg PO). Inhibition in data set [3] (Homo sapiens, MCF7) was half-maximal at 40 nM (IC50). The entries for the “Serum Cholesterol (% Dec.)” value in the data set with Serum cholesterol (0.1 mg/kg PO), with Serum cholesterol (1 mg/kg PO) and in the data set with Serum cholesterol (10 mg/kg PO) were -8.6%, 42.5* % and 56.1* %, respectively. Also, the “Uterine EPO (Vmax)” value in data set [2] (0.1 mg/kg PO) amounted to 4.5; in data set [2] (1 mg/kg PO), 4.8; in data set [2] (10 mg/kg PO) it was 7.5.
Regarding `CCCCOC(=O)c1ccc2c(C(=O)c3ccc(OCCN4CCCCC4)cc3)c(-c3ccc(O)cc3)sc2c1` [Example 2, [2-(4-Hydroxyphenyl)-6-n-butoxycarbonylbenzo[b]thien-3-yl][4-[2-(1-piperidinyl)ethoxy]phenyl]methanone], the “Uterine Wt. (% Inc.)” value was 19.4% in data set [1] (0.1 mg/kg PO), 16.8% in data set [1] (1 mg/kg PO) and 52.5* % in data set [1] (10 mg/kg PO). The compound further returned an IC50 in data set [3] (Homo sapiens, MCF7) of 45 nM. Moreover, the “Serum Cholesterol (% Dec.)” value in the data set on Serum cholesterol (0.1 mg/kg PO) is -1.2%; with Serum cholesterol (1 mg/kg PO) it was 26.7%; in the data set on Serum cholesterol (10 mg/kg PO), 55.6* %. Further, the “Uterine EPO (Vmax)” value in data set [2] (0.1 mg/kg PO) worked out at 2.4; in data set [2] (1 mg/kg PO), 0.0; in data set [2] (10 mg/kg PO), 4.8.
Consider `CC(C)COC(=O)c1ccc2c(C(=O)c3ccc(OCCN4CCCCC4)cc3)c(-c3ccc(O)cc3)sc2c1` [Example 3], for which the “Uterine Wt. (% Inc.)” value in data set [1] (0.1 mg/kg PO) is given as 11.8%; in data set [1] (1 mg/kg PO), 21.7%; in data set [1] (10 mg/kg PO), 47.1* %. Also, in data set [3], the IC50 was determined as 45 nM. Moreover, the “Serum Cholesterol (% Dec.)” value is listed as -2.4% with Serum cholesterol (0.1 mg/kg PO), 8.7% with Serum cholesterol (1 mg/kg PO) and 58.0* % in the data set with Serum cholesterol (10 mg/kg PO). The “Uterine EPO (Vmax)” value in data set [2] (0.1 mg/kg PO) is listed as 3.3; in data set [2] (1 mg/kg PO), 3.3; in data set [2] (10 mg/kg PO), 4.8.
For the compound `Cl.O=C(O)c1ccc2c(C(=O)c3ccc(OCCN4CCCCC4)cc3)c(-c3ccc(O)cc3)sc2c1` [Example 4, [2-(4-Hydroxyphenyl)-6-carboxybenzo[b]thien-3-yl][4-[2-(1-piperidinyl)ethoxy]phenyl]methanone Hydrochloride], the entries for the “Uterine Wt. (% Inc.)” value in data set [1] (0.1 mg/kg PO), in data set [1] (1 mg/kg PO) and in data set [1] (10 mg/kg PO) were 18.8%, 27.2% and 29.6* %, respectively. Besides, the “Serum Cholesterol (% Dec.)” value is reported as 0.6% with Serum cholesterol (0.1 mg/kg PO), 10.4% with Serum cholesterol (1 mg/kg PO) and 44.9* % with Serum cholesterol (10 mg/kg PO). Also, the results for the “Uterine EPO (Vmax)” value in data set [2] (0.1 mg/kg PO), in data set [2] (1 mg/kg PO) and in data set [2] (10 mg/kg PO) were 3.3, 3.0 and 3.6, respectively.
Turning to `CC(=O)c1ccc2c(C(=O)c3ccc(OCCN4CCCCC4)cc3)c(-c3ccc(O)cc3)sc2c1` [Example 5, [2-(4-Hydroxyphenyl)-6-acetylbenzo[b]thien-3-yl][4-[2-(1-piperidinyl)ethoxy]phenyl]methanone], the “Uterine Wt. (% Inc.)” value in data set [1] (0.1 mg/kg PO) was 18.8%; in data set [1] (1 mg/kg PO) it was 51.8* %; in data set [1] (10 mg/kg PO), 69.4* %. This compound also showed an IC50 in data set [3] (Homo sapiens, MCF7) of 60 nM. Besides, the “Serum Cholesterol (% Dec.)” value in the data set on Serum cholesterol (0.1 mg/kg PO) is listed as -6.3%; with Serum cholesterol (1 mg/kg PO), 20.4%; in the data set with Serum cholesterol (10 mg/kg PO), 45.4* %. The “Uterine EPO (Vmax)” value in data set [2] (0.1 mg/kg PO) is 1.2; in data set [2] (1 mg/kg PO), 2.1; in data set [2] (10 mg/kg PO) it was 5.4.
For the compound `C#Cc1ccc2c(C(=O)c3ccc(OCCN4CCCCC4)cc3)c(-c3ccc(O)cc3)sc2c1` [Example 6, [2-(4-Hydroxyphenyl)-6-ethynylbenzo[b]thien-3-yl][4-[2-(1-piperidinyl)ethoxy]phenyl]methanone], the results for the “Uterine Wt. (% Inc.)” value in data set [1] (0.1 mg/kg PO), in data set [1] (1 mg/kg PO) and in data set [1] (10 mg/kg PO) were 14.3%, 27.8% and 22.5%, respectively. The IC50 in data set [3] (Homo sapiens, MCF7) was found to be 20 nM. The “Serum Cholesterol (% Dec.)” value in the data set on Serum cholesterol (0.1 mg/kg PO) is on record as 39.4* %; in the data set with Serum cholesterol (1 mg/kg PO), 58.7* %; with Serum cholesterol (10 mg/kg PO), 65.8* %. Besides, the “Uterine EPO (Vmax)” value is recorded as 3.9 in data set [2] (0.1 mg/kg PO), 4.8 in data set [2] (1 mg/kg PO) and 4.8 in data set [2] (10 mg/kg PO).
